Laboratory results published in patent US7412284B2, “Apparatus for electroporation mediated delivery for drugs and genes” (Genetronics, Inc., priority 1997, dated 2008).
Entries after “also recorded” stand apart in the source; their conditions may differ. Marks after values point to notes of the source that are not given here.

Legend:
[1] = tested on: poorly differentiated human pancreatic tumor (Panc-3); assay: EPT with bleomycin of Panc-3 tumors xenografted in nude mice; assay type: in vivo, nude mouse; conditions: for Complete Regression (100%), number of mice / Death, number of mice / No Response, number of mice / Partial Regression (≧80%), number of mice / Tumor regrowth, number of mice: of 25 mice treated; for Tumor volume (mm^3) T1: treated mouse T1; for Tumor volume (mm^3) T2: treated mouse T2
Procedure: The single treatment procedure involved injection of bleomycin (0.5 units in 0.15 ml saline) intratumorally, using fanning, as described herein followed by application of six square wave electrical pulses, ten minutes later, using needle array electrodes as described in the present application, arranged along the circumference of a circle 1 cm in diameter. Needle array of variable diameters (e.g., 0.5 cm, 0.75 cm and 1.5 cm can also be used to accommodate tumors of various sizes. Stoppers of various heights can be inserted at the center of the array to make the penetration depth of the needles into the tumor variable. A built-in mechanism allowed switching of electrodes for maximum coverage of the tumor by the pulsed field. The electrical parameters were: 780 V/cm center field strength and 6×99 μs pulses spaced at 1 sec interval.
The tumor cell line Panc-3, a poorly differentiated adenocarcinoma cell line of the pancreas, was supplied by AntiCancer, Inc., San Diego. For EPT experiments, tissue taken from the stock mice, where the tumor line was maintained, was thawed and cut into very small pieces about 1 mm each, and 8-10 pieces were surgically xenografted in a subcutaneous sac made in left flank of nude mice, and then closed with 6.0 surgical suture. […] The tumor dimensions were measured and the tumor volume calculated using the formula: (II/6)×a×b×c where a, b, and c a are, respectively, the length, width and thickness of the tumor. 0.5 units Bleomycin (Sigma Chemicals) was dissolved in 0.15 ml of 0.9% NaCl and was injected in each mice intratumorally by fanning for both the control (D+E−) and the treated (D+E+) groups. Ten minutes after the injection, each mouse in the D+E+ group was pulsed from a BTX T820 square wave electroporator with a set of needle array electrodes as described in the present invention. Electrical parameters used were as follows: field strength 1300 V/cm, 6 pulses of 99 μs each, at 1 sec interval.
The mice were monitored every day for mortality and any signs of a diseased state were noted. The tumor dimensions were measured at regular intervals and tumor growth regression/progression monitored.

[2] = tested on: Human pancreatic xenograft (Panc-4); assay: EPT using MedPulser and bleomycin, Panc-4 xenograft; assay type: in vivo, nude mice; conditions: up to day 39 of observation
From the text: (§1) Preliminary experiments using MedPulser™ (apparatus of the invention) for treatment of tumor xenografts grown subcutaneously onto nude mice have shown encouraging results. […] Treatment of human prostate xenografts (PC-3) has also shown about 66% complete regression of tumors. (No tumors observed up to 60 days after treatment). Both 4 and 6 needle array are effective in treatment of tumors by EPT.

[3] = tested on: human prostate xenografts (PC-3); assay: EPT using MedPulser, PC-3 xenograft; assay type: in vivo, nude mice; conditions: no tumors observed up to 60 days after treatment
From the text: as §1

[4] = cited from earlier work
[5] = tested on: PC-3 (human prostate cell line); assay: MedPulser 4 vs 6 needle array in vitro, XTT cell survival; assay type: cell-based; conditions: bleomycin at 2×10^5 M, 20 hours
Procedure: Experiments were carried out to compare the efficacy of 6 vs. 4 needle array with MedPulser™ on PC-3 (human prostate cell line) in vitro. Cells were suspended in RPMI media and seeded uniformly at 200,000 cells/ml. Bleomycin at […] was added to the wells (for D+E− and D+E+ only). Cells were electroporated in 24 well plates using the 6-needle and 4-needle array electrodes connected to the MedPulser. The electropulse parameters were 6×99 μs, 1129 V with the 6-needle array and 4×99 μs, 848 V with the 4-needle array. The cells were transferred to 96 well plates and incubated for 20 hours at 37° C. The cell survival was determined using XTT assay which is based on metabolic conversion of XTT to formazan and is measured spectrophotometrically at 450 nm. Only the cells which are live convert XTT to formazan. The percent cell survival values are relative values calculated from the O.D. values of the sample, a control with 100% cell survival (D−E−) and control with 0% cell survival (D−E− with SDS, which lyses all cells).

## bleomycin
[1]; 2/25
  treated mice with no response: 8%
[1]; 20 days after treatment, 1/25
  treated mice that died: 4%
[1]; 28 days following treatment, 5/25
  treated mice with partial (>80%) regression: 20%
[1]; 28 days following treatment, 17/25
  treated mice with complete tumor regression: 68%
[1]; 35 days after treatment, at a much slower rate
  mice with tumor regrowth: 8%
[1]; D+E+ group, 35 days after the treatment
  histology of tumor samples: necrotic tumor cell ghosts; also recorded: severe necrosis of the tumor region
[1]; after 120 days
  histology of samples from tumor site: complete absence of tumor cells
[1]; after 120 days of the treatment, 16/25
  cases with no palpable tumor: 64%
[1]; bleomycin 0.5 units intratumoral + pulses
  necrosis and edema at the treatment site: severe necrosis and edema in nearly all the mice
[1]; control group D+E− (drug, no pulsing)
  tumor volume: increased dramatically
[1]; 28 days after treatment
  Complete Regression (100%), number of mice: 17
  Death, number of mice: 1
  No Response, number of mice: 2
  Partial Regression (≧80%), number of mice: 5
  Tumor volume (mm^3) T1: 0 mm^3
  Tumor volume (mm^3) T2: 0 mm^3
[1]; 35 days after treatment
  Complete Regression (100%), number of mice: 16
  No Response, number of mice: 2
  Partial Regression (≧80%), number of mice: 3
  Tumor volume (mm^3) T1: 0 mm^3
  Tumor volume (mm^3) T2: 0 mm^3
[1]; 57 days after treatment
  Complete Regression (100%), number of mice: 16
  Partial Regression (≧80%), number of mice: 3
  Tumor regrowth, number of mice: 2
[1]; 57 days after treatment, footnote a: mice sacrificed due to increased tumor burden
  No Response, number of mice: 1^a
[1]; 84 days after treatment
  Complete Regression (100%), number of mice: 16
  No Response, number of mice: 1
  Partial Regression (≧80%), number of mice: 3
[1]; 84 days after treatment, 1 died after treatment, 1 with no palpable tumor died after 64 days
  Death, number of mice: 2^b
[1]; 94 days after treatment
  Complete Regression (100%), number of mice: 16
  No Response, number of mice: 1
  Partial Regression (≧80%), number of mice: 3
[1]; 94 days after treatment, footnote d: secondary metastatic tumor
  Tumor regrowth, number of mice: 1^d
[1]; 120 days after treatment
  Complete Regression (100%), number of mice: 16
[1]; 120 days after treatment, footnote e: fibrous tissue
  Partial Regression (≧80%), number of mice: 3^e
[1]; representative animals (2/17), then euthanized
  time monitored to be without tumors: 243 days
[1]; treated group D+E+ (drug + electrical field)
  tumor volume: substantial reduction in the tumor volume
[1]; treated mice, after approximately 24 days
  detectable tumor: essentially no detectable tumor
[1]; 0 days after treatment
  Tumor volume (mm^3) T1: 123.110 mm^3
  Tumor volume (mm^3) T2: 178.370 mm^3
[1]; 1 day after treatment
  Tumor volume (mm^3) T1: 210.950 mm^3
  Tumor volume (mm^3) T2: 252.720 mm^3
[1]; 8 days after treatment
  Tumor volume (mm^3) T1: 104.550 mm^3
  Tumor volume (mm^3) T2: 211.110 mm^3
[1]; 15 days after treatment
  Tumor volume (mm^3) T1: 113.210 mm^3
  Tumor volume (mm^3) T2: 226.966 mm^3
[1]; 18 days after treatment
  Tumor volume (mm^3) T1: 161.730 mm^3
  Tumor volume (mm^3) T2: 246.910 mm^3
[1]; 24 days after treatment
  Tumor volume (mm^3) T1: 41.560 mm^3
  Tumor volume (mm^3) T2: 47.223 mm^3
[1]; 38 days after treatment
  Tumor volume (mm^3) T1: 0 mm^3
  Tumor volume (mm^3) T2: 0 mm^3
[1]; 43 days after treatment
  Tumor volume (mm^3) T1: 0 mm^3
  Tumor volume (mm^3) T2: 0 mm^3
[2]
  mice with complete tumor regression: about 75%
[3]
  complete regression of tumors: about 66%
[4]
  log P (P being the partition coefficient between octanol and water): very negative
[5]; D + E + (4N), 4×99 μs, 848 V, 4-needle array
  Avg. % Survival: 4.78%
[5]; D + E + (6N), 6×99 μs, 1129 V, 6-needle array
  Avg. % Survival: −4.12%
[5]; D + E −, no pulse
  Avg. % Survival: 27.71%
